Patent publication US8648117B2, “Methods and compositions for treating cancer metastasis” (Golden Biotechnology Corporation, priority 2012, dated 2014)

Legend:
[1] = tested on: MDA-MB-231SA-GFP6 human breast cancer cells; experiment: Breast cancer bone metastasis model (intracardiac inoculation, 25-day study, preventive setting); format: in vivo
Excerpt: The objective of this study was to test the efficacy of three different doses of the exemplary compound 1 (Antroquinonol) from Example 1 on breast cancer bone metastases in female athymic nude mice in a 25-day study in preventive setting. The following 5 experimental groups were included in the study:
The vehicle was corn oil. All groups included 15 mice that are 5 weeks of age at the beginning of the study. Based on the body weights the animals were randomized to five groups. On day 0, the animals were given intracardiac inoculation of human breast cancer cells. Body weights were determined twice a week. At sacrifice, the osteolytic lesions and whole body tumor burden were quantified by x-ray and fluorescence imaging, respectively. The test compound and vehicle were administered by oral gavage twice a day. Blood samples for analysing TRACP 5b were collected at days 0, 17 and 24. The animals were sacrificed at day 25, or earlier if they became moribund. Tissue samples were collected for histology and embedded in paraffin from left and right tibia and femur for possible future histomorphometric analyses. Gross necropsy was performed to all animals at the end of the study, and all macroscopic signs were recorded.
(§1) Test compound 1 (99%, 1005 mg/ml) was obtained in liquid form. Three 50× stock solutions were prepared in corn oil (75 mg/ml, 150 mg/ml and 225 mg/ml) and stored them in dark at +4° C. The dosing solutions of 1.5, 3.0 and 4.5 mg/ml were prepared from the stock solutions by diluting the stock solutions in corn oil 1:50. The dosing solutions were prepared once a week and stored in dark at +4° C. The dosing volume was 10 ml/kg. The test compound was administered by oral gavage twice a day with dosing intervals of 10+14 hours. The dosings were performed at the same time every day.
(§2) Zoledronic acid was used as a reference compound. 100 μl of Zometa® (Novartis Pharma GmbH, Nürnberg, Germany) 4 mg/5 ml infusion concentrate was diluted in 3.9 ml of sterile saline (0.9% NaCl) to obtain the administration concentration of 0.02 mg/ml. This solution was prepared once during the study and stored at +4° C. The dosing volume was 5 ml/kg, resulting in the dose of 0.1 mg/kg. The reference compound was administered SC twice in the study: at days 1 and 14.
Female athymic nude mice (Hsd: Athymic nude-nu) were obtained from Harlan Laboratories B.V. (Horst, The Netherlands). MDA-MB-231SA-GFP6 human breast cancer cells were received originally from Prof. Theresa Guise (Indiana University, Indianapolis, Ind., USA) and transfected with pTurboGFP-N vector (Evrogen JSC, Moscow, Russia).
This experiment utilized an animal model that closely resembles the characteristics of breast cancer metastatic disease or condition in humans. This model can be effectively used for testing the effects of cancer drug candidates on the metastasis of breast cancer cells to bone. In this model, human breast cancer cells are inoculated into the left cardiac ventricle of 5 weeks old female athymic nude mice. This mouse strain is immunodeficient, allowing rapid spreading of the human cancer cells. Within two weeks after the inoculation, the animals develop osteolytic bone metastases that can be visualized by X-ray radiography. In addition, soft tissue metastases are observed in approximately 40% of the animals, especially in adrenal glands. At 3 weeks, the bone metastases are clearly visible in X-ray radiographs and the animals have developed cachexia and lost weight substantially. The animals are sacrificed typically at 3-4 weeks after inoculation, and their hindlegs are collected for further histomorphometric analysis.
Female Athymic nude mice (Hsd: Athymic nude-nu, obtained from Harlan, The Netherlands) were used for this study. The age of the animals was 5 weeks, and their body weights were approximately 16-22 g at the beginning of the study. The mice were specific pathogen free (SPF) and isolator-reared animals. […]

[2] = tested on: PC-3 human prostate cancer cells; experiment: Prostate cancer bone metastasis model (intratibial inoculation, 5-week study, preventive setting); format: in vivo, male athymic nude mice; parameters: Fractures / Osteoblastic lesions: unit not given here; details: for Significance (Fractures) / Significance (Osteoblastic lesions): vs control; for Fractures / Osteoblastic lesions: x-ray, qualitative (yes or no)
Excerpt: The objective of this study was to test the efficacy of three different doses of the test compound 1 on prostate cancer bone metastases in male athymic nude mice in a 5-week study in preventive setting. The following 5 experimental groups were included in the study:
The vehicle was corn oil. All groups included 15 mice that were 7 weeks of age at the beginning of the study. Based on the body weights the animals were randomized to five groups. On day 0, the animals were given an intratibial inoculation of human prostate cancer cells. Body weights were determined twice a week. The development of osteoblastic and osteolytic lesions were followed by x-ray. The test compound and vehicle were administered by oral gavage twice a day. The animals were sacrificed at day 35. Tissue samples were collected for histology and embedded in paraffin from left and right tibia and femur for possible future histomorphometric analyses. Gross necropsy was performed to all animals at the end of the study, and all macroscopic signs were recorded.
as §1, with “compound 1 (99.85%, specific density: 1.005) was obtained” for “compound 1 (99%, 1005 mg/ml) was obtained”, “dosings were started at day 1 and performed at” for “dosings were performed at”
as §2, with “[…]” for “100 μl”
Male athymic nude mice (Hsd: Athymic nude-nu, obtained from Harlan, The Netherlands) and PC-3 human prostate cancer cells (ATCC) were used for this study.
In this model, human prostate cancer cells are inoculated into the left proximal tibia of 5-7 week old male athymic nude mice. This mouse strain is immunodeficient, allowing rapid spreading of the human cancer cells. The bone lesions are mixed, being mainly osteolytic but also containing an osteoblastic component. Within four weeks after the inoculation part of the animals have already developed some bone lesions, that can be visualized by X-ray radiography. At 7 weeks, the bone metastases are clearly visible. The animals are sacrificed at 7-8 weeks after inoculation, and their bones are collected for further histomorphometric analysis.
Male athymic nude mice (Hsd: Athymic nude-nu, obtained from Harlan, The Netherlands) were used for this study. The age of the animals was 7 weeks, and their body weights were approximately 18-25 g at the beginning of the study. The mice were specific pathogen free (SPF) and isolator-reared animals. Correct age and good clinical health were qualifications for the study. The minimum quarantine and acclimatization period for the mice was 7 days. Allocation to groups was performed by randomization procedure based on body weight. The animals were marked with tail and ear marks. The mice were housed in Scantainer®, 5 mice per cage. In case of fighting, some of the animals had to be isolated. For intratibial inoculations the mice were anesthetized with i.p. injections of Xylazin (5-6 mg/kg) and Ketamine (92-109 mg/kg). For x-ray imaging the mice were anesthetized with inhalation of isoflurane. […]

[3] = Day 28, 0.1 mg/kg sc days 1 and 14
[4] = Sacrifice, 0.1 mg/kg sc days 1 and 14

COC1=C(OC)C(O)C(C/C=C(\C)CC/C=C(\C)CCC=C(C)C)C(C)C1=O (stereo not drawn) [Compound 1, 4-hydroxy-2,3-dimethoxy-6-methyl-5-(3,7,11-trimethyldodeca-2,6,10-trienyl)cyclohex-2-enone]
Cachectic % ([1]; 30 mg/kg/d po): 21.4%
Paraplegic % ([1]; 30 mg/kg/d po): 57.1%
Cachectic % ([1]; 60 mg/kg/d po): 16.7%
Paraplegic % ([1]; 60 mg/kg/d po): 8.3%
Cachectic % ([1]; 90 mg/kg/d po): 20%
Paraplegic % ([1]; 90 mg/kg/d po): 20.0%
intraosseous tumor area ([1]; higher doses (60 and 90 mg/kg/d)): no effect
body weight at sacrifice ([1]; mouse, in vivo, 90 mg/kg/day): increased
maximum weight obtained during the study ([1]; mouse, in vivo, 90 mg/kg/day): increased
Significance (Fractures) ([2]; Day 28, 30 mg/kg/d po): * (One asterisk (*) indicates a statistical significance with p-value<0.05)
Significance (Fractures) ([2]; Day 28, 60 mg/kg/d po): * (One asterisk (*) indicates a statistical significance with p-value<0.05)
Fractures ([2]; Day 28, 30 mg/kg/d po): 0.0
Osteoblastic lesions ([2]; Day 28, 30 mg/kg/d po): 0.0
Fractures ([2]; Day 28, 60 mg/kg/d po): 0.0
Osteoblastic lesions ([2]; Day 28, 60 mg/kg/d po): 0.0
Fractures ([2]; Day 28, 90 mg/kg/d po): 36.4
Osteoblastic lesions ([2]; Day 28, 90 mg/kg/d po): 9.1
Significance (Fractures) ([2]; Sacrifice, 30 mg/kg/d po): * (One asterisk (*) indicates a statistical significance with p-value<0.05)
Significance (Fractures) ([2]; Sacrifice, 60 mg/kg/d po): * (One asterisk (*) indicates a statistical significance with p-value<0.05)
Significance (Osteoblastic lesions) ([2]; Sacrifice, 60 mg/kg/d po): * (One asterisk (*) indicates a statistical significance with p-value<0.05)
Fractures ([2]; Sacrifice, 30 mg/kg/d po): 21.4
Osteoblastic lesions ([2]; Sacrifice, 30 mg/kg/d po): 35.7
Fractures ([2]; Sacrifice, 60 mg/kg/d po): 21.4
Osteoblastic lesions ([2]; Sacrifice, 60 mg/kg/d po): 21.4
Fractures ([2]; Sacrifice, 90 mg/kg/d po): 36.4
Osteoblastic lesions ([2]; Sacrifice, 90 mg/kg/d po): 45.5
osteoclast number at tumor-bone interface ([2]; all doses): no effect
total tumor area ([2]; dose 60 mg/kg/d): no effect
maximum body weight obtained ([2]; mouse, in vivo, 60 mg/kg/day): increased

O=P(O)(O)C(O)(Cn1ccnc1)P(=O)(O)O [Zoledronic acid, reference compound]
Cachectic % ([1]; 0.1 mg/kg sc days 1 and 14): 11.1%
Paraplegic % ([1]; 0.1 mg/kg sc days 1 and 14): 22.2%
body weight ([1]; 0.1 mg/kg sc days 1 and 14): no effect
intraosseous tumor area ([1]; 0.1 mg/kg sc days 1 and 14): no effect
whole body tumor burden ([1]; 0.1 mg/kg sc days 1 and 14): no effect
body weight ([2]; 0.1 mg/kg sc days 1 and 14): no effect
Significance (Fractures) [2, 3]: * (One asterisk (*) indicates a statistical significance with p-value<0.05)
Fractures [2, 3]: 0.0
Osteoblastic lesions [2, 3]: 0.0
Significance (Fractures) [2, 4]: *** (three asterisks (***) a statistical significance with p-value<0.001)
Significance (Osteoblastic lesions) [2, 4]: *** (three asterisks (***) a statistical significance with p-value<0.001)
Fractures [2, 4]: 0.0
Osteoblastic lesions [2, 4]: 0.0
